Experiments:
[1] = target: T1, Delta receptor, mouse vas deferens (Mus musculus, UniProt P32300); assay: Mouse vas deferens, inhibition of electrically induced contractions, delta; format: cell-based; details: read-out: Mouse Vas Deferens ED50 (nM) δ
T1 construct: Mouse vasa deferentia (MVD), CD-1 strain, Harlan, Raleigh, N.C.) were removed from mice; tissue Harlan, Raleigh, N.C; (animals); host or cells: mouse vas deferens, CD-1 strain
Protocol: The compound of formula (I) and compounds 1, 3, 4, 5 and 6 as identified above, were evaluated for in vitro opioid receptor activity in various receptor systems, including mouse vas deferens (Mouse Vas Deferens ED50), and guinea pig ileum (Guinea Pig Ileum ED50). The assay procedures used for such determinations of receptor activity are set out below.
In vitro bioassays: Mouse vasa deferentia (MVD), CD-1 strain, Harlan, Raleigh, N.C.) were removed from mice and suspended between platinum electrodes with 0.5 g of tension in organ bath chambers containing a modified Mg^++ free Krebs buffer of the following composition (millimolar): NaCl, 117.5; KCl, 4.75; CaCl2, 2.6; KH2PO4, 1.20; NaHCO3, 24.5; and glucose, 11. The buffer was saturated with 95% O2/5% CO2 and kept at 37° C. Tissues were stimulated at supramaximal voltage with 10-Hz pulse trains for 400-msec.; train interval 10 seconds; and 1.0 msec pulse duration at maximal voltage. Delta receptor activity was determined by adding appropriate concentrations of test compound to organ baths and allowing a maximal response before addition of the next higher concentration.
The ED50 values were extrapolated from curves showing the dose concentration plotted against the response (J. A. H. Lord, A. A. Waterfield, J. Hughes, H. W. Kosterlitz, Nature 267, 495, (1977)).

κ opioid receptor = target: T2, κ opioid receptor (Cavia porcellus, UniProt P41144); assay: Radioligand binding, [3H]U69593 competition, guinea pig cerebellum membranes; details: read-out: Guinea Pig Brain Membrane K1 (nM) κ
T2 construct: tissue Pel-Freeze Biological Inc. (Rogers, Ark.); host or cells: guinea pig cerebellum membranes
Protocol: (§1) Two stereoisomerically related racemic mixtures and inclusive enantiomers were evaluated for in vitro opioid receptor affinity in rat brain membranes (μ and δ opioid) and guinea pig cerebellum (κ opioid receptor). Membranes for radioligand binding were prepared from either rat whole brain or guinea pig cerebellum, supplied by Pel-Freeze Biological Inc. (Rogers, Ark.). Tissues were homogenized in 50 mM TRIS (Tris[hydrooxymethyl]aminomethane) buffer (pH 7.4) containing 50 ug/ml soybean trypsin inhibitor, 1 mM EDTA (Ethylenediaminetetraacetic acid), and 100 μM PMSF (Phenylmethylsulfonyl fluoride). The homogenized brain tissues were centrifuged at 500×g for 30 minutes (4° C.) to remove large debris. The supernatant was polytronically sonicated for 10 seconds (P.E. setting of 2, 4° C.). Sucrose solution was then added to a final concentration of 0.35 M using a 10 mM TRIS-Sucrose buffer (pH 7.4) and the brain membranes were then centrifuged at 40,000×g for 30 minutes (4° C.). The membrane pellets were then washed twice in 10 mM TRIS buffer (pH 7.4) containing 50 μg/ml soybean trypsin inhibitor, 1 mM EDTA, and 100 μM PMSF.
(§2) Radioligand binding assays were performed in 10 mM TRIS buffer (pH 7.4) containing 50 μg/ml soybean trypsin inhibitor, 1 mM EDTA, 5 mM MgCl2, and 100 μM PMSF. Tritium-labeled DAMGO (μ), Deltorphin II (δ), or U69593 (κ) purchased from New England Nuclear were used as ligands in competitive experiments (2-3×10^−10 M final concentrations) with non-specific binding defined by 0.5×10^−6 M Naloxone (purchased from SIGMA Chemical Co.). All binding assays were run at room temperature for 90 minutes and then terminated by rapid filtration on GF/C glass fiber filters (Whatman, Hillsboro, Oreg.) with 50 mM TRIS buffer (4° C., pH 7.4) employing a Brandel Semi-automatic Cell Harvester (Model M48, Brandel, Gaithersburg, Md.). The filters were washed twice with 50 mM TRIS buffer (4° C., pH 7.4) and the filters were placed in liquid scintillation cocktail and the bound radioactivity counted on a Beckman LS 6500 scintillation counter. The potency of the compounds in inhibiting the binding of radiolabelled DAMGO (μ), Deltorphin II (δ), or U69593 (κ) was determined from full concentration-effect curves. With the computer program Prism (GraphPad Software Inc., San Diego, Calif.) the IC50 values were determined using a one-site nonlinear regression analysis of the radioligand binding data. The IC50 values were then converted to Ki values using the Cheng-Prusoff equation. (Cheng Y and Prusoff W H (1973) Relationship between the inhibition constant (K1) and the concentration of inhibitor which causes 50 percent inhibition (I50) of a enzymatic reaction. Biochem Pharm 22:3099-3108.)

rats [2] = assay: Tail pinch test for analgesia in rats; format: in vivo; details: rat; for Analgesia (delay of response to tail pinch): 0.30 mg/kg i.v., cutoff 20 sec
Protocol: (§3) Analgesia was assayed in rats using the tail pinch test with simultaneous monitoring of capillary blood gases (pCO2). During this testing period respiratory depression values were also obtained. Male rats (Wistar Hannover 200-300 g) were anesthetized with 2% isoflurane (J. A. Webster, Inc., Sterling, Mass. The femoral artery was cannulated with PE50 tubing for blood sampling. The external jugular vein was also cannulated with Silastic tubing for drug injection. After surgery, anesthetic gases were removed and the rat was allowed to rest in a plastic restrainer for 60 minutes to establish baseline values of blood gases.
(§4) The compounds 1-6 were administered intravenous. Nociceptive response and respiratory values were obtained for a 1-2 hour period. The femoral artery cannulation was used to draw arterial blood into a syringe pre-wetted with heparin. Samples were then analyzed with a blood gas analyzer (Ph/Gas Analyzer Synthesis 25 Model, Instrumentation Laboratory) to assess respiratory depression effects. The volume of blood taken each time was 0.15 cc. The syringes were capped immediately and the blood gases analyzed within 5 minutes. The blood exposed to air at the tip of the syringe was expelled. The blood was mixed by gentle inversion and an aliquots of 0.10 cc was injected into the blood gas analyzer.
An artery clamp was placed on the tail (one inch from the tip of the tail) for a short duration until an escape response occurred (i.e. tail-flick or vocalization). The escape response latency was recorded by means of a stopwatch. A cutoff time of 20 sec. was used to prevent unnecessary tissue damage. […] The elapsed time to elicit a pain response was recorded as the tail pinch latency in seconds. Blood gases were monitored at approximately the same time points as the tail pinch test.
(§5) The ED50 values for analgesia potency and respiratory depression were determined to calculate the safety or therapeutic ratio, which is defined as the respiratory depression ED50 divided by analgesia ED50.

rats [3] = assay: Respiratory depression by blood gas (pCO2) monitoring in rats; format: in vivo; details: rat; for Respiratory Depression % Units Baseline pCO2: 0.30 mg/kg i.v.
Protocol: as §3, §4
(§6) The gas analyzer was well maintained and operated. Calibrations (low, normal and high) were done at the beginning of every day of testing. The sample lines, co-oximeter and the blood gas electrode were cleaned regularly at the end of every day of testing. Hematocrit calibration (high and low) was scheduled on a weekly basis and tubing, sample and pinch valve were replaced on a monthly basis.
as §5

[4] = as above; format: in vivo; details: male, Wistar Hannover, in vivo; rat, intravenous
Protocol: as §3, §4, §6, §5

δ opioid receptor = target: T3, δ opioid receptor (Rattus norvegicus, UniProt P33533); assay: Radioligand binding, [3H]Deltorphin II competition, rat brain membranes; details: read-out: Rat Brain Membrane K1 (nM) δ
T3 construct: tissue Pel-Freeze Biological Inc. (Rogers, Ark.); host or cells: rat whole brain membranes
Protocol: as §1, §2

[5] = target: T4, Mu receptor, mouse vas deferens (Mus musculus, UniProt P42866); assay: Mouse vas deferens, inhibition of electrically induced contractions, mu (with TIPP and nor-BNI); format: cell-based; details: in presence of 3 μM TIPP and 15 nM nor-BNI; read-out: Mouse Vas Deferens ED50 (nM) μ
T4 construct: Mouse vasa deferentia (MVD), CD-1 strain, Harlan, Raleigh, N.C.) were removed from mice; tissue Harlan, Raleigh, N.C; (animals); host or cells: mouse vas deferens, CD-1 strain

μ opioid receptor = target: T5, μ opioid receptor (Rattus norvegicus, UniProt P33535); assay: Radioligand binding, [3H]DAMGO competition, rat brain membranes; details: rat brain membranes, [3H]DAMGO; read-out: Rat Brain Membrane K1 (nM) μ
T5 construct: tissue Pel-Freeze Biological Inc. (Rogers, Ark.); host or cells: rat whole brain membranes
Protocol: as §1, §2

C=CCN1C[C@@H](C)N([C@H](c2ccsc2)c2cccc(O)c2)C[C@@H]1C [Compound 6, (−)3-((S)-((2R,5S)-4-allyl-2,5-dimethyl-1-piperazinyl)(3-thienyl)methyl)phenol]
EC50 [1]: 282 nM
Ki (κ opioid receptor): 16 nM
Analgesia (delay of response to tail pinch) (rats [2]; 4 min.): 0 s
Analgesia (delay of response to tail pinch) (rats [2]; 8 min.): 0 s
Analgesia (delay of response to tail pinch) (rats [2]; 32 min.): 0 s
Analgesic effect in words (rats [2]; i.v., tail pinch, FIGS. 1-6): no measurable analgesic effect
ED50 (rats [2]; intravenous, tail pinch, 20 sec cutoff): > 6 mg/kg
Respiratory Depression % Units Baseline pCO2 (rats [3]; 4 min.): 0%
Respiratory Depression % Units Baseline pCO2 (rats [3]; 8 min.): 0%
Respiratory Depression % Units Baseline pCO2 (rats [3]; 32 min.): 0%
Effect on blood pCO2 levels in words (rats [3]; i.v.): no effect on blood pCO2 levels
ED50 [4]: > 6 mg/kg
Ki (δ opioid receptor): 13 nM
EC50 [5]: > 1000 nM
Ki (μ opioid receptor): 60 nM

From US6924288B2, “Enantiomerically pure opioid diarylmethylpiperzine and methods of using same” (priority 2001, dated 2005)
